Results published in PubChem BioAssay (NCI).
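The compound was tested at five concentrations on cells cultured in 96-well plates, with a 48-hour exposure period. TGI: total growth inhibition.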

What was measured:
Experiment in all cases: NCI-60 cell line screen, 48 h
786-0 renal = system: 786-0 renal
A498 renal = system: A498 renal
A549 NSCLC = system: A549 NSCLC
ACHN renal = system: ACHN renal
BT-549 breast = system: BT-549 breast
CAKI-1 renal = system: CAKI-1 renal
CCRF-CEM leukemia = system: CCRF-CEM leukemia
COLO 205 colon = system: COLO 205 colon
DU-145 prostate = system: DU-145 prostate
EKVX NSCLC = system: EKVX NSCLC
HCC-2998 colon = system: HCC-2998 colon
HCT-116 colon = system: HCT-116 colon
HCT-15 colon = system: HCT-15 colon
HL-60(TB) leukemia = system: HL-60(TB) leukemia
HOP-62 NSCLC = system: HOP-62 NSCLC
HOP-92 NSCLC = system: HOP-92 NSCLC
HS 578T breast = system: HS 578T breast
HT29 colon = system: HT29 colon
IGROV1 ovarian = system: IGROV1 ovarian
K-562 leukemia = system: K-562 leukemia
KM12 colon = system: KM12 colon
LOX IMVI melanoma = system: LOX IMVI melanoma
M14 melanoma = system: M14 melanoma
MALME-3M melanoma = system: MALME-3M melanoma
MCF7 breast = system: MCF7 breast
MDA-MB-231 breast = system: MDA-MB-231 breast
MDA-MB-435 = system: MDA-MB-435
MDA-N = system: MDA-N
MOLT-4 leukemia = system: MOLT-4 leukemia
NCI-H226 lung = system: NCI-H226 lung
NCI-H23 lung = system: NCI-H23 lung
NCI-H460 lung = system: NCI-H460 lung
NCI-H522 lung = system: NCI-H522 lung
NCI/ADR-RES ovarian = system: NCI/ADR-RES ovarian
OVCAR-3 ovarian = system: OVCAR-3 ovarian
OVCAR-4 ovarian = system: OVCAR-4 ovarian
OVCAR-5 ovarian = system: OVCAR-5 ovarian
OVCAR-8 ovarian = system: OVCAR-8 ovarian
PC-3 prostate = system: PC-3 prostate
RPMI-8226 leukemia = system: RPMI-8226 leukemia
RXF 393 renal = system: RXF 393 renal
SF-268 CNS = system: SF-268 CNS
SF-295 CNS = system: SF-295 CNS
SF-539 CNS = system: SF-539 CNS
SK-MEL-2 melanoma = system: SK-MEL-2 melanoma
SK-MEL-28 melanoma = system: SK-MEL-28 melanoma
SK-MEL-5 melanoma = system: SK-MEL-5 melanoma
SK-OV-3 ovarian = system: SK-OV-3 ovarian
SN12C renal = system: SN12C renal
SNB-19 CNS = system: SNB-19 CNS
SNB-75 CNS = system: SNB-75 CNS
SR leukemia = system: SR leukemia
SW-620 colon = system: SW-620 colon
T-47D breast = system: T-47D breast
TK-10 renal = system: TK-10 renal
U251 CNS = system: U251 CNS
UACC-257 melanoma = system: UACC-257 melanoma
UACC-62 melanoma = system: UACC-62 melanoma
UO-31 renal = system: UO-31 renal

In the case of Brc1ccc2c(-c3nc(-c4c[nH]c5ccccc45)cs3)c[nH]c2c1, the TGI (786-0 renal) is reported as 81.1 µM, the TGI (A498 renal) is reported as over 92.3 µM and the TGI (A549 NSCLC) is reported as 74.6 µM. The TGI (ACHN renal) was over 100 µM, the TGI (BT-549 breast) was over 96.8 µM and the TGI (CAKI-1 renal) was over 100 µM. For the same compound, the TGI (CCRF-CEM leukemia) was over 100 µM, the TGI (COLO 205 colon) was over 79.7 µM and the TGI (DU-145 prostate) was over 100 µM. For the same compound, the TGI (EKVX NSCLC) was over 100 µM, the TGI (HCC-2998 colon) was over 100 µM and the TGI (HCT-116 colon) was over 100 µM. It also gave a TGI (HCT-15 colon) of over 100 µM, a TGI (HL-60(TB) leukemia) of over 100 µM and a TGI (HOP-62 NSCLC) of over 100 µM. It also gave a TGI (HOP-92 NSCLC) of over 100 µM, a TGI (HS 578T breast) of over 100 µM and a TGI (HT29 colon) of over 100 µM. It also gave a TGI (IGROV1 ovarian) of over 100 µM, a TGI (K-562 leukemia) of over 100 µM and a TGI (KM12 colon) of over 47.3 µM. The TGI (LOX IMVI melanoma) was over 73 µM, the TGI (M14 melanoma) was over 100 µM and the TGI (MALME-3M melanoma) was over 100 µM. For the same compound, the TGI (MCF7 breast) was over 100 µM, the TGI (MDA-MB-231 breast) was over 89.4 µM and the TGI (MDA-MB-435) was over 100 µM. The TGI (MDA-N) was over 100 µM, the TGI (MOLT-4 leukemia) was over 87 µM and the TGI (NCI-H226 lung) was over 100 µM. For the same compound, the TGI (NCI-H23 lung) was over 88 µM, the TGI (NCI-H460 lung) was over 100 µM and the TGI (NCI-H522 lung) was over 100 µM. The TGI (NCI/ADR-RES ovarian) was over 100 µM, the TGI (OVCAR-3 ovarian) was over 100 µM and the TGI (OVCAR-4 ovarian) was over 100 µM. For the same compound, the TGI (OVCAR-5 ovarian) was over 100 µM, the TGI (OVCAR-8 ovarian) was over 100 µM and the TGI (PC-3 prostate) was over 91.2 µM. The TGI (RPMI-8226 leukemia) was over 100 µM, the TGI (RXF 393 renal) was over 68.7 µM and the TGI (SF-268 CNS) was over 100 µM. The TGI (SF-295 CNS) was over 100 µM, the TGI (SF-539 CNS) was 69.5 µM and the TGI (SK-MEL-2 melanoma) was over 84.3 µM. For the same compound, the TGI (SK-MEL-28 melanoma) was over 93.6 µM, the TGI (SK-MEL-5 melanoma) was 57.1 µM and the TGI (SK-OV-3 ovarian) was over 100 µM. It also gave a TGI (SN12C renal) of over 100 µM, a TGI (SNB-19 CNS) of over 100 µM and a TGI (SNB-75 CNS) of over 100 µM. It also gave a TGI (SR leukemia) of over 82.3 µM, a TGI (SW-620 colon) of over 86.8 µM and a TGI (T-47D breast) of over 100 µM. For the same compound, the TGI (TK-10 renal) was 45.8 µM, the TGI (U251 CNS) was over 100 µM and the TGI (UACC-257 melanoma) was over 100 µM. It also gave a TGI (UACC-62 melanoma) of over 100 µM and a TGI (UO-31 renal) of over 100 µM.

With CCCCC/C=C1/CC(CO)(COC(=O)CC(C(C)C)C(C)C)OC1=O (configuration not stated) the TGI (786-0 renal) was 22.3 µM, the TGI (A498 renal) was 26.5 µM and the TGI (A549 NSCLC) was 27.1 µM. It also gave a TGI (ACHN renal) of 24.7 µM, a TGI (BT-549 breast) of 28.5 µM and a TGI (CAKI-1 renal) of 23.1 µM. It also gave a TGI (CCRF-CEM leukemia) of over 100 µM, a TGI (COLO 205 colon) of 14.7 µM and a TGI (DU-145 prostate) of 27.8 µM. It also gave a TGI (EKVX NSCLC) of 31.5 µM, a TGI (HCC-2998 colon) of 35.2 µM and a TGI (HCT-116 colon) of 28 µM. For the same compound, the TGI (HCT-15 colon) was 33.6 µM, the TGI (HOP-62 NSCLC) was 20.7 µM and the TGI (HOP-92 NSCLC) was 21.5 µM. The TGI (HS 578T breast) was 9.09 µM, the TGI (HT29 colon) was 34.9 µM and the TGI (IGROV1 ovarian) was 31.7 µM. It also gave a TGI (K-562 leukemia) of 66.3 µM, a TGI (KM12 colon) of 30.5 µM and a TGI (M14 melanoma) of 27.1 µM. For the same compound, the TGI (MALME-3M melanoma) was 18.2 µM, the TGI (MCF7 breast) was 31.8 µM and the TGI (MDA-MB-231 breast) was 32.5 µM. For the same compound, the TGI (MDA-MB-435) was 19 µM, the TGI (MDA-N) was 17 µM and the TGI (MOLT-4 leukemia) was 26.2 µM. The TGI (NCI-H226 lung) was 24.9 µM, the TGI (NCI-H23 lung) was 31.7 µM and the TGI (NCI-H460 lung) was over 100 µM. The TGI (NCI-H522 lung) was 29.9 µM, the TGI (NCI/ADR-RES ovarian) was 38.9 µM and the TGI (OVCAR-3 ovarian) was 32.7 µM. It also gave a TGI (OVCAR-4 ovarian) of 41.8 µM, a TGI (OVCAR-5 ovarian) of 29.7 µM and a TGI (OVCAR-8 ovarian) of 31 µM. It also gave a TGI (PC-3 prostate) of 24.6 µM, a TGI (RXF 393 renal) of 29.8 µM and a TGI (SF-268 CNS) of 30.3 µM. It also gave a TGI (SF-295 CNS) of 19.5 µM, a TGI (SK-MEL-2 melanoma) of 42.9 µM and a TGI (SK-MEL-28 melanoma) of 26.7 µM. It also gave a TGI (SK-MEL-5 melanoma) of 21.5 µM, a TGI (SK-OV-3 ovarian) of 40.4 µM and a TGI (SN12C renal) of 26 µM. The TGI (SNB-19 CNS) was 21.2 µM, the TGI (SNB-75 CNS) was 22.6 µM and the TGI (SR leukemia) was 42.8 µM. The TGI (SW-620 colon) was 50.8 µM, the TGI (T-47D breast) was 40.5 µM and the TGI (TK-10 renal) was 32.5 µM. The TGI (U251 CNS) was 27.6 µM, the TGI (UACC-257 melanoma) was 47.4 µM and the TGI (UACC-62 melanoma) was 29.6 µM. It also gave a TGI (UO-31 renal) of 24.1 µM.

In the case of Cc1c(-c2ccccc2)c(C#N)c2nnn(-c3ccccc3)c(=O)n12, the TGI (786-0 renal) is reported as over 100 µM, the TGI (A498 renal) is reported as over 100 µM and the TGI (A549 NSCLC) is reported as over 100 µM. It also gave a TGI (ACHN renal) of over 100 µM, a TGI (BT-549 breast) of over 100 µM and a TGI (CAKI-1 renal) of over 100 µM. It also gave a TGI (CCRF-CEM leukemia) of over 100 µM, a TGI (COLO 205 colon) of over 100 µM and a TGI (DU-145 prostate) of over 100 µM. It also gave a TGI (EKVX NSCLC) of over 100 µM, a TGI (HCC-2998 colon) of over 100 µM and a TGI (HCT-116 colon) of over 100 µM. The TGI (HCT-15 colon) was over 100 µM, the TGI (HL-60(TB) leukemia) was over 100 µM and the TGI (HOP-62 NSCLC) was over 100 µM. For the same compound, the TGI (HOP-92 NSCLC) was over 100 µM, the TGI (HS 578T breast) was over 100 µM and the TGI (HT29 colon) was over 100 µM. The TGI (IGROV1 ovarian) was over 100 µM, the TGI (K-562 leukemia) was over 100 µM and the TGI (KM12 colon) was over 100 µM. The TGI (LOX IMVI melanoma) was over 100 µM, the TGI (M14 melanoma) was over 100 µM and the TGI (MALME-3M melanoma) was over 100 µM. For the same compound, the TGI (MCF7 breast) was over 100 µM, the TGI (MDA-MB-231 breast) was over 100 µM and the TGI (MDA-MB-435) was over 100 µM. The TGI (MDA-N) was over 100 µM, the TGI (NCI-H226 lung) was over 100 µM and the TGI (NCI-H23 lung) was over 100 µM. For the same compound, the TGI (NCI-H460 lung) was over 100 µM, the TGI (NCI-H522 lung) was over 100 µM and the TGI (NCI/ADR-RES ovarian) was over 100 µM. It also gave a TGI (OVCAR-3 ovarian) of over 100 µM, a TGI (OVCAR-4 ovarian) of over 100 µM and a TGI (OVCAR-5 ovarian) of over 100 µM. The TGI (OVCAR-8 ovarian) was over 100 µM, the TGI (PC-3 prostate) was over 100 µM and the TGI (RPMI-8226 leukemia) was over 100 µM. The TGI (RXF 393 renal) was over 100 µM, the TGI (SF-268 CNS) was over 100 µM and the TGI (SF-295 CNS) was over 100 µM. The TGI (SF-539 CNS) was over 100 µM, the TGI (SK-MEL-2 melanoma) was over 100 µM and the TGI (SK-MEL-28 melanoma) was over 100 µM. For the same compound, the TGI (SK-MEL-5 melanoma) was over 100 µM, the TGI (SK-OV-3 ovarian) was over 100 µM and the TGI (SN12C renal) was over 100 µM. For the same compound, the TGI (SNB-19 CNS) was over 100 µM, the TGI (SNB-75 CNS) was over 100 µM and the TGI (SR leukemia) was over 100 µM. The TGI (SW-620 colon) was over 100 µM, the TGI (T-47D breast) was over 100 µM and the TGI (TK-10 renal) was over 100 µM. For the same compound, the TGI (U251 CNS) was over 100 µM, the TGI (UACC-257 melanoma) was over 100 µM and the TGI (UACC-62 melanoma) was over 100 µM. The TGI (UO-31 renal) was over 100 µM.
